Test results reported in patent US12459951B2, “Compounds that interact with RAS superfamily proteins for treatment of cancers, inflammatory diseases, rasopathies, and fibrotic disease” (SHY Therapeutics, LLC, priority 2022, dated 2025).
Counter-ions that a name gives are not always drawn.

Tests used:
[1] = system: Erk1/2 phosphorylation; experiment: Erk1/2 Phosphorylation Assay (western blot), Panc-1; assay type: cell-based, human; settings: at 10 μM, * = activation
Protocol: Protocol for Western Erk1/2 Cell-Based Phosphorylation Assay
This assay is referred to as the “Erk1/2 Phosphorylation Assay” throughout this application.
Cell lines: Human tumor-derived pancreatic cancer cell line Panc-1 (expressing KRas G12D mutant) was purchased from American Type Culture Collection and grown in complete DMEM-High Glucose medium, supplemented with penicillin (100 U/mL), streptomycin (100 μg/mL), and 10% heat-inactivated FBS at 37° C. in a humidified incubator with 5% CO2.
Method 1: Cells were plated at 350000 cells/well density in a 12-well plate, allowed 3 hours to adhere to the plate, then starved in the appropriate medium in the presence of 0.5% FBS overnight. The small molecules to be tested were added to the cells in the final concentration of 10 μM in the presence of 0.3% DMSO for 6 hours incubation at 37° C. For IC50 value determination, serial dilutions of compounds were added to cells under the same conditions. Next, cells were stimulated with 1.5 ng/ml EGF for 15 minutes then cells were lysed with lysis buffer containing 1% Triton X-100, EDTA, and Halt™ Protease & Phosphatase Inhibitor Cocktail (Thermo Scientific). Protein concentration was assessed by BCA protein assay (Thermo Scientific). Phosphorylation level of Erk1/2 was determined by western blot.
Method 2: Cells were plated at 350000 cells/well density in a 12-well plate in 10% FBS. The next day small molecules to be tested were added to the cells in the final concentration of 10 μM in the presence of 0.3% DMSO for 6 hours incubation at 37° C. For IC50 value determination, serial dilutions of compounds were added to cells under the same conditions. Next, cells were lysed with lysis buffer containing 1% Triton X-100, EDTA, and Halt™ Protease & Phosphatase Inhibitor Cocktail (Thermo Scientific). Protein concentration was assessed by BCA protein assay (Thermo Scientific). Phosphorylation level of Erk1/2 was determined by western blot.
Western blot protocol: Equal amounts of protein (15-50 μg) were separated by SDS-PAGE and transferred to nitrocellulose membranes (Invitrogen by Thermo Fisher Scientific). The membrane was stained with Ponceau S Stain (Boston BioProducts) to verify uniform protein loading. Membranes were blocked with 10% milk and phosphorylation levels of Erk1/2 were assessed by incubating overnight at 4° C. with anti-phospho-p44/42 (Thr202/Tyr204) antibody (Cell Signaling) followed by HRP-conjugated secondary antibody (Jackson Immunoresearch, West Grove, PA). Bands were incubated in Amersham ECL Prime Western Blotting Detection Reagent (GE Healthcare) and visualized using the ChemiDoc MP imaging system (Bio-Rad).

[2] = system: KRas G12D mutant; experiment: Ras GTP Binding Domain Inhibition Assay (Ras Superfamily Assay); settings: 20 μM compound; for KRas G12D mutant + SOS: % inh.: with SOS; for KRas G12D mutant: % inh.: without SOS
Excerpt: (§1) Biological Example 3: Ras GTP Binding Domain Inhibition Assay
(§2) The assays described in Example 3 are collectively referred to as the “Ras Superfamily Assay” throughout this application.
(§3) A Ras Superfamily Activity Assay (as disclosed in International Application No. PCT/US2018/038613, filed Jun. 20, 2018, which is incorporated by reference in its entirety) was used as a specific assay to evaluate compounds against the following for the following Ras Superfamily proteins: KRas wild type, KRas Q61H mutant, KRas G12C mutant, KRas G12D mutant, Rac-1, and Rho-A.
(§4) • 25 mM Tris-HCl, pH 7.4 • 27 mM KCl • 137 mM NaCl • 1 mM MgCl2 • 1 mM DTT Buffer-II: • 50 mM Tris-HCl, pH 7.0 • 1 mM MgCl2 • 1 mM DTT
(§5) The small GTPases proteins: KRas wild type. KRas Q61H mutant, KRas G12C mutant, KRas G12D mutants, Rac-1, and Rho-A were expressed as His-tagged proteins. In addition, the Guanosine nucleotide Exchange Factor (GEF) Sos protein (residues 556-1049) was expressed as a His-tagged protein. In cells, the guanine nucleotide exchange factor Sos protein promotes activation of Ras proteins by stimulating an exchange of GDP for GTP. The inclusion of Sos to the Ras GTP binding domain inhibition assay may be considered as an alternative representation of physiological cellular conditions for evaluating the inhibitory activity of some of the tested small molecules.
(§6) For the assay, all purified small GTPases proteins were diluted in Buffer-I or Buffer-II to a final concentration of 10-30 μg/mL. 200 μL of each diluted protein was added to a nickel-coated 96-well plate and incubated overnight at 4° C. Then the protein solution was discarded and 200 μL of Buffer-I or Buffer-II was added to each well in the presence of 1% DMSO. Compounds to be tested were added to the protein-coated wells at final concentration of 20 μM, and incubated for 3 hours at room temperature with and without 10-30 μg/mL of Sos added to the final hour of the incubation. When performing IC50 measurements a serial dilution of all tested concentrations was added. Then Cy3-GTP or Cy5-GTP was added to each well to a final concentration of 100 nM. The labeled GTP was incubated for 45 minutes at room temperature. Following GTP incubation, wells were washed 3× in Buffer-I or Buffer-II and 200 μL of Buffer-I or Buffer-II was added to each well. Following washes, the amount of bound labeled-GTP was measured using a SpectraMax M3 (Molecular Devices).

[3] = system: KRas wild type; experiment: as above; settings: 20 μM compound; for KRas wild type + SOS: % inh.: with SOS; for KRas wild type: % inh.: without SOS
Excerpt: as §1, §2, §3, §4, §5, §6

[4] = target: T1, Rac-1 (Homo sapiens, UniProt P63000); experiment: as above; settings: read-out: Rac-1: % inh.
T1 construct: made in house
Excerpt: as §1, §2, §3, §4, §5, §6

SMILES	% inh of Erk1/2 phosphorylation in Panc-1 [1]	KRas G12D mutant + SOS: % inh. [2]	KRas G12D mutant: % inh. [2]	KRas wild type + SOS: % inh. [3]	KRas wild type: % inh. [3]	inhibition at 20 µM [4] [%]
COCCO[C@H]1C[C@H](Nc2nc(-c3nccn3C)nn3cc(-c4ccn(C)n4)c(C)c23)C1 [Compound 130, N-((1r,3r)-3-(2-Methoxyethoxy)cyclobutyl)-5-methyl-2-(1-methyl-1H-imidazol-2-yl)-6-(1-methyl-1H-pyrazol-3-yl)pyrrolo[2,1-f][1,2,4]triazin-4-amine]	B* (26-49% activation)	A (A = 1-25% inhibition)	B (B = 26-49% inhibition)	0 (0 = 0% inhibition)	A (A = 1-25% inhibition)	0
Cc1c(-c2ccn(C(C)C)n2)cn2nc(-c3nccn3C)nc(Nc3nccc(OCCN(C)C)n3)c12 [Compound 96, N-(4-(2-(Dimethylamino)ethoxy)pyrimidin-2-yl)-6-(1-isopropyl-1H-pyrazol-3-yl)-5-methyl-2-(1-methyl-1H-imidazol-2-yl)pyrrolo[2,1-f][1,2,4]triazin-4-amine]	0 (0% inhibition)	D (D = 76-100% inhibition)	D (D = 76-100% inhibition)	D (D = 76-100% inhibition)	D (D = 76-100% inhibition)	76 to 100
Cc1c(-c2ccn(C)n2)cn2nc(-c3nccn3C)nc(Nc3cn(C(C)C)nn3)c12 [Compound 109, N-(1-Isopropyl-1H-1,2,3-triazol-4-yl)-5-methyl-2-(1-methyl-1H-imidazol-2-yl)-6-(1-methyl-1H-pyrazol-3-yl)pyrrolo[2,1-f][1,2,4]triazin-4-amine]	B* (26-49% activation)	C (C = 50-75% inhibition)	D (D = 76-100% inhibition)	C (C = 50-75% inhibition)	D (D = 76-100% inhibition)	76 to 100
COc1ccnc(Nc2nc(-c3nccn3C)nn3cc(-c4cccnc4)c(C)c23)n1 [Compound 158, N-(4-Methoxy-pyrimidin-2-yl)-5-methyl-2-(1-methyl-1H-imidazol-2-yl)-6-(pyridin-3-yl)pyrrolo[2,1-f][1,2,4]triazin-4-amine]	A (1-25% inhibition)	D (D = 76-100% inhibition)	D (D = 76-100% inhibition)	D (D = 76-100% inhibition)	D (D = 76-100% inhibition)	76 to 100
Cc1c(-c2ccn(C3CC3)n2)cn2nc(-c3nccn3C)nc(Nc3cc(OC4CC4)ccn3)c12 [Compound 142, N-(4-Cyclopropoxypyridin-2-yl)-6-(1-cyclopropyl-1H-pyrazol-3-yl)-5-methyl-2-(1-methyl-1H-imidazol-2-yl)pyrrolo[2,1-f][1,2,4]triazin-4-amine]	C (50-84% inhibition)	D (D = 76-100% inhibition)	D (D = 76-100% inhibition)	D (D = 76-100% inhibition)	D (D = 76-100% inhibition)	76 to 100
COc1cnc(Nc2nc(-c3nccn3C)nn3cc(-c4ccn(C)n4)c(C)c23)nc1.Cl [Compound 117, N-(5-Methoxypyrimidin-2-yl)-5-methyl-2-(1-methyl-1H-imidazol-2-yl)-6-(1-methyl-1H-pyrazol-3-yl)pyrrolo[2,1-f][1,2,4]triazin-4-amine hydrochloride salt]	B (26-49% inhibition)	A (A = 1-25% inhibition)	A (A = 1-25% inhibition)	A (A = 1-25% inhibition)	A (A = 1-25% inhibition)	1 to 25
CO[C@H]1C[C@H](Nc2nc(-c3nccn3C)nn3cc(-c4cccnc4)c(C)c23)C1 [Compound 151, N-((1r,3r)-3-Methoxycyclobutyl)-5-methyl-2-(1-methyl-1H-imidazol-2-yl)-6-(pyridin-3-yl)pyrrolo[2,1-f][1,2,4]triazin-4-amine]	D* (85-100% activation)	D (D = 76-100% inhibition)	B (B = 26-49% inhibition)	C (C = 50-75% inhibition)	C (C = 50-75% inhibition)	50 to 75
CO[C@H]1C[C@H](Nc2nc(-c3nccn3C)nn3cc(-c4ccn(C)n4)c(C)c23)C1 [Compound 103, N-((1r,3r)-3-Methoxycyclobutyl)-5-methyl-2-(1-methyl-1H-imidazol-2-yl)-6-(1-methyl-1H-pyrazol-3-yl)pyrrolo[2,1-f][1,2,4]triazin-4-amine hydrochloride salt]	A* (1-25% activation)	B (B = 26-49% inhibition)	B (B = 26-49% inhibition)	A (A = 1-25% inhibition)	B (B = 26-49% inhibition)	1 to 25
Cc1c(-c2ccn(C)n2)cn2nc(-c3nccn3C)nc(Nc3ccn(C4CC4)n3)c12 [Compound 111, N-(1-Cyclopropyl-1H-pyrazol-3-yl)-5-methyl-2-(1-methyl-1H-imidazol-2-yl)-6-(1-methyl-1H-pyrazol-3-yl)pyrrolo[2,1-f][1,2,4]triazin-4-amine]	A* (1-25% activation)	B (B = 26-49% inhibition)	B (B = 26-49% inhibition)	A (A = 1-25% inhibition)	C (C = 50-75% inhibition)	26 to 49
